≈ marks a conversion by molar mass, not a printed value. Entries after “also recorded” stand apart in the source; their conditions may differ. Read-outs that look alike come from different tables or passages of the source.
Assays:
FGF19 = conditions: healthy subjects, single and repeated dosing
[1] = Pharmacokinetics in the chronic 2 week rat ANIT-induced cholestasis model; format: in vivo; conditions: male, Wistar, po, day 13, serum; for AUC(0-t): read-out: AUC 0-24 hr
Description: (§1) Male Wistar rats were treated with ANIT (0.1% ANIT in chow diet) for 2 weeks. […] The serum samples were collected on day 14 for analysis of biomarkers of hepatobiliary injury (including ALT, AST, bilirubin and bile acids). […] The mean biomarker data were compared to the PK data (average concentration at each dose) for the modeling. The IC80 was determined using the Inhibitory effect Imax model (effect C=0 at Imax, C=infinity at E0) built in Phoenix WinNonlin 6.3 software. […] Therefore, we chose to use a mean of the IC80 for the four biomarkers (total bilirubin, total bile acids, ALT and AST) as the IC80 for efficacy in this model.
ND=not determined. Data are presented as mean (n=3/group).

[2] = Human efficacy dose calculation from rat efficacious exposure
Description: The human efficacy dose was calculated based on the efficacious exposure in the rat ANIT-induced disease model. Since the in vitro potency and protein binding between human and rat were similar, the EC80 exposure in human was assumed to be the same as that in rat (3.05 ng*h/mL).

[3] = Food effect (high-fat meal vs fasted) on pharmacokinetics; format: in vivo, human; conditions: taken with a high-fat meal
Description: To avoid variability in drug exposure, it is recommended that throughout the treatment period, patients will be directed to take study drug at home with ˜240 mL (8 ounces) of water in the morning in a fasting state, at least 30 min prior to the first beverage apart from water and 60 min prior to first meal of the day, preferably at the same time of the day.

[4] = Protein binding, human vs rat; format: in vitro ADME
[5] = tested on: rat ANIT-induced cholestasis chronic treatment model; assay: PK/PD modeling of effective exposure in rat ANIT-induced cholestasis chronic treatment model; format: in vivo
Description: as §1, with “acids). The PK samples (pre-dose, 0.5, 1, 3, 7, 10 and 24 h, n=3/dose group) were taken on day 13 (at steady-state).” for “acids).”, “model. From these studies, the IC80 of LJN452 was 0.127 ng/ml and the corresponding AUC0-24 h was 3.05 ng*h/ml (Table 1), and the corresponding efficacious dose is approximately 0.01 mg/kg (based on Table 1 and Table 2).” for “model.”
E0, effect at zero drug concentration; Imax, maximal drug effect; IC80, drug concentration producing 80% of the maximum effect.
The PK samples (pre-dose, 0.5, 1, 3, 7, 10 and 24 h, n=3/dose group) were taken on day 13 (at steady-state). AUC0-24 h was determined using Phoenix WinNonlin 6.3 software and the average concentrations were calculated from mean of AUC0-24 h at each dose (divided the AUC0-24 h by 24 h). The individual biomarker data were compared to the PK data (average concentration at each dose) for the modeling. Since the lowest dose (0.01 mg/kg) already approached maximal efficacy, the IC80 was chosen as the measurement of the efficacious exposure (Table 1). The IC80 was determined using the Inhibitory effect Imax model (effect C=0 at Imax, C=infinity at E0) built in Phoenix WinNonlin 6.3 software.
E0: effect at zero drug concentration; Imax: maximal drug effect IC80, drug concentration producing 80% of the maximum effect.

[6] = Safety and tolerability in healthy subjects; format: in vivo, human
[7] = effect at zero drug concentration, 2-week rat ANIT model, serum
[8] = maximal drug effect, 2-week rat ANIT model, serum
[9] = clinical study in healthy subjects

O=C(O)c1cc(F)c2nc(N3C4CC[C@H]3CC(OCc3c(-c5ccccc5OC(F)(F)F)noc3C3CC3)C4)sc2c1 (some centres unmarked) [Compound A]
FGF19 response to dose (FGF19): Dose-dependent increases; also recorded: continues to rise with increasing Compound A doses beyond 100 μg | Cmax ([1]; 0.01 mg/kg): 0.39 ng/mL | AUC(0-t) ([1]; 0.01 mg/kg): 3.49 ng·h/mL | Cmax ([1]; 0.05 mg/kg): 2.28 ng/mL | Cmax ([1]; 0.25 mg/kg): 15.6 ng/mL | AUC(0-t) ([1]; 0.25 mg/kg): 158 ng·h/mL | Cmax ([1]; 1.0 mg/kg): 52 ng/mL | AUC(0-t) ([1]; 1.0 mg/kg): 582 ng·h/mL | Cmax at estimated human efficacious dose ([2]; at dose of ~6 μg): ~0.2 ng/mL | EC80 exposure ([2]; rat value, human assumed to be the same): 3.05 ng·h/mL | Tmax ([3]; human, plasma, oral, read-out: median Tmax): 9 h | increase of mean AUCinf compared to the fasted state [3]: approximately 60% | increase of mean Cmax compared to the fasted state [3]: approximately 60% | BSEP gene expression levels (FXR target genes; rat liver): significant, dose-dependent increases | SHP gene expression levels (FXR target genes; rat liver): significant, dose-dependent increases | estimated effective dose (mean ED and median ED) (FXR target genes; rats treated two weeks, FXR target gene induction/repression in liver and ileum, day 14): approximately 0.01 mg/kg | protein binding between human and rat [4]: similar | Mean (efficacious AUC0-24 h) ([5]; AUC0-24 h corresponding to mean IC80, rat ANIT model): 3.05 ng·h/mL | IC80 ([5]; drug concentration producing 80% of the maximum effect, rat ANIT model, read-out: IC80, ALT): 0.054 ng/mL (≈ 0.0895 nM) | IC80 ([5]; drug concentration producing 80% of the maximum effect, rat ANIT model, read-out: IC80, AST): 0.076 ng/mL (≈ 0.126 nM) | IC80 ([5]; drug concentration producing 80% of the maximum effect, rat ANIT model, read-out: IC80, Total bile acids): 0.155 ng/mL (≈ 0.257 nM) | IC80 ([5]; drug concentration producing 80% of the maximum effect, rat ANIT model, read-out: IC80, Total bilirubin): 0.223 ng/mL (≈ 0.369 nM) | E0, ALT [5, 7]: 138.2 U/L | E0, AST [5, 7]: 272.8 U/L | E0, Total bile acids [5, 7]: 147.8 µmol/L | E0, Total bilirubin [5, 7]: 2.3 mg/dL | Imax, ALT [5, 8]: 84.2 U/L | Imax, AST [5, 8]: 140.3 U/L | Imax, Total bile acids [5, 8]: 125.5 µmol/L | Imax, Total bilirubin [5, 8]: 2.0 mg/dL | IC80 ([5]; mean of IC80 for total bilirubin, total bile acids, ALT and AST, rat ANIT model, read-out: Mean (IC80)): 0.127 ng/mL (≈ 0.21 nM) | corresponding efficacious dose ([5]; rat ANIT model, based on Table 1 and Table 2): approximately 0.01 mg/kg | elevation of transaminases (ALT and AST), number of subjects ([6]; 100 μg repeated daily): 3 subjects | ALP or bilirubin ([6]; 100 μg repeated daily, any subject): no elevation | time for elevated ALT to resolve to within normal levels ([6]; 100 μg, without intervention): ≤ 14 days | adverse events related to itch [6, 9]: no adverse events related to itch | physical exam, vital signs or ECGs [6, 9]: No significant findings | tolerability ([6]; repeated daily administration, doses up to and including 60 μg): well tolerated

— patent US20210386729A1, “METHODS FOR TREATING LIVER DISORDERS USING FXR AGONISTS” (NOVARTIS AG, priority 2016, published 2021)
